Measurements from ChEMBL document CHEMBL3217603, “Synthesis and NMDA receptor affinity of dexoxadrol analogues with modifications in position 4 of the piperidine ring” (Medchemcomm, 2010).

Assays:
[1] = Displacement of [3H]-(+)-MK801 from pig brain phencyclidine binding site of NMDA receptor by scintillation counting; set-up: species or system Sus scrofa
[2] = tested on: Sigma-2 receptor (Rattus norvegicus); assay: Displacement of [3H]-di-o-tolylguanidine from sigma-2 receptor in rat liver homogenate at 1 uM by liquid scintillation counting
[3] = target: Sigma-2 receptor (Rattus norvegicus); assay: Displacement of [3H]-di-o-tolylguanidine from sigma-2 receptor in rat liver homogenate by liquid scintillation counting
Sus scrofa = organism: Sus scrofa; assay: Displacement of [3H]-(+)-MK801 from pig brain phencyclidine binding site of NMDA receptor at 1 uM by scintillation counting

| SMILES | Ki [1] [nM] | inhibition [2] [%] | Ki [3] [nM] | inhibition (Sus scrofa) [%] |
| --- | --- | --- | --- | --- |
| O=C1CCN[C@H]([C@H]2COC(c3ccccc3)(c3ccccc3)O2)C1 (racemic) | 470 |  |  |  |
| O[C@H]1CCN[C@H]([C@H]2COC(c3ccccc3)(c3ccccc3)O2)C1 (racemic) | 44 | 13 |  |  |
| CN[C@H]1CCN[C@H]([C@@H]2COC(c3ccccc3)(c3ccccc3)O2)C1 (racemic) |  |  | 3670 | 16 |
| O[C@@H]1CCN[C@H]([C@H]2COC(c3ccccc3)(c3ccccc3)O2)C1 (racemic) | 527 | 2 |  |  |
| CO[C@H]1CCN[C@H]([C@H]2COC(c3ccccc3)(c3ccccc3)O2)C1 (racemic) | 981 | 9 |  |  |
| O=C(OCc1ccccc1)N1CC[C@H](NCc2ccccc2)C[C@H]1[C@@H]1COC(c2ccccc2)(c2ccccc2)O1 (racemic) |  |  | 442 | 30 |
| CN[C@@H]1CCN(C(=O)OCc2ccccc2)[C@H]([C@@H]2COC(c3ccccc3)(c3ccccc3)O2)C1 (racemic) |  | 28 |  | 7 |
| CN[C@@H]1CCN(C(=O)OCc2ccccc2)[C@H]([C@H]2COC(c3ccccc3)(c3ccccc3)O2)C1 (racemic) |  | 42 |  | 10 |
| CN[C@@H]1CCN[C@H]([C@@H]2COC(c3ccccc3)(c3ccccc3)O2)C1 (racemic) |  | 44 |  | 16 |
| CN[C@@H]1CCN[C@H]([C@H]2COC(c3ccccc3)(c3ccccc3)O2)C1 (racemic) |  | 12 |  | 40 |
| CN[C@H]1CCN(C(=O)OCc2ccccc2)[C@H]([C@@H]2COC(c3ccccc3)(c3ccccc3)O2)C1 (racemic) |  | 18 |  | 7 |
| CN[C@H]1CCN(C(=O)OCc2ccccc2)[C@H]([C@H]2COC(c3ccccc3)(c3ccccc3)O2)C1 (racemic) |  | 35 |  | 6 |
| CN[C@H]1CCN[C@H]([C@H]2COC(c3ccccc3)(c3ccccc3)O2)C1 (racemic) |  | 37 |  | 30 |
| CO[C@@H]1CCN[C@H]([C@@H]2COC(c3ccccc3)(c3ccccc3)O2)C1 (racemic) |  | 18 |  | 37 |
| CO[C@@H]1CCN[C@H]([C@H]2COC(c3ccccc3)(c3ccccc3)O2)C1 (racemic) |  | 5 |  | 49 |
| CO[C@H]1CCN[C@H]([C@@H]2COC(c3ccccc3)(c3ccccc3)O2)C1 (racemic) |  | 23 |  | 21 |
| N[C@@H]1CCN[C@H]([C@@H]2COC(c3ccccc3)(c3ccccc3)O2)C1 (racemic) |  | 15 |  | 26 |
| N[C@@H]1CCN[C@H]([C@H]2COC(c3ccccc3)(c3ccccc3)O2)C1 (racemic) |  | 26 |  | 44 |
| N[C@H]1CCN[C@H]([C@@H]2COC(c3ccccc3)(c3ccccc3)O2)C1 (racemic) |  | 13 |  | 25 |
| N[C@H]1CCN[C@H]([C@H]2COC(c3ccccc3)(c3ccccc3)O2)C1 (racemic) |  | 17 |  | 17 |
| O=C(OCc1ccccc1)N1CC[C@@H](NCc2ccccc2)C[C@H]1[C@@H]1COC(c2ccccc2)(c2ccccc2)O1 (racemic) |  | 23 |  | 8 |
| O=C(OCc1ccccc1)N1CC[C@@H](NCc2ccccc2)C[C@H]1[C@H]1COC(c2ccccc2)(c2ccccc2)O1 (racemic) |  | 14 |  | 20 |
| O=C(OCc1ccccc1)N1CC[C@H](NCc2ccccc2)C[C@H]1[C@H]1COC(c2ccccc2)(c2ccccc2)O1 (racemic) |  | 8 |  | 15 |
| O=C1CCN[C@H]([C@@H]2COC(c3ccccc3)(c3ccccc3)O2)C1 (racemic) |  |  |  | 84 |
| O[C@@H]1CCN[C@H]([C@@H]2COC(c3ccccc3)(c3ccccc3)O2)C1 (racemic) |  | 0 |  | 0 |
| O[C@H]1CCN[C@H]([C@@H]2COC(c3ccccc3)(c3ccccc3)O2)C1 (racemic) |  | 30 |  | 3 |
